{"source": "patent US20030207393A1", "about": "“Cbp86, a sperm specific protein” (priority 2002, published 2003)", "key": {"86 kDa form of CBP86": {"system": "86 kDa form of CBP86", "assay": "In vitro capacitation of human sperm, anti-phosphotyrosine (RC-20) 2-D immunoblot of CBP86", "format": "cell-based", "settings": "for Capacitation-induced tyrosine phosphorylation of the 86 kDa CBP86 isoforms: human sperm capacitated in HTF plus HSA plus 100 μμM progesterone plus 100, 200 or 400 μμM of inhibitor", "experimental": "Preparation of semen specimens and solubilization of sperm proteins were performed as previously described (Naaby-Hansen et al, 1997a.) For analytical two-dimensional electrophoresis the detergent/urea extracted proteins were separated by isoelectric focusing (IEF) in acrylamide tube gels prior to second dimensional gel electrophoresis (SDS-PAGE), which was performed in a Protean II xi Multi-Cell apparatus (Bio-Rad, Richmond, Calif.) or on large format (23×23 cm) gels (Investigator 2-D Electrophoresis System, ESA) which were also employed for preparative 2D gel electrophoresis. Electrotransfer to nitrocellulose membranes and subsequent visualizing of the proteins by gold staining was accomplished as previously described (Naaby-Hansen et al, 1997) while electrotransfer to PVDF membranes ([…], Pierce) was carried out as described by Henzel et al. (1993) using the transfer buffer composition of Matsudaira (1987) (10 mM 3-[cyclohexylamino]-1-propanesulfonic acid, 10% methanol, pH 11). The immobilized proteins were visualized by staining in a solution containing 0.1% Commassie R250, 40% methanol and 0.1% acetic acid for one minute, followed by destaining in a solution of 10% acetic acid and 50% methanol for 3×3 minutes.\nMotile sperm were harvested by the swim up method of Bronson and Fusi (1990). A control sample was removed and snap frozen (−70 C.), while the remaining sperm were resuspended in one of the following media: Dulbecco's PBS, BWW, BWW plus 3 mM b-cyclodextran (Sigma), BWW plus b-cyclodextran and 100 μμM progesterone, human tubal fluid [HTF] (Irvine) plus HSA (30 mg/ml), HTF plus HSA plus 2, 20 or 100 μμM progesterone, HTF plus HSA plus 100 μμM progesterone plus either 100, 200 or 400 μμM of genestein or daidzein. (Akiyama et al., 1987). Capacitation was achieved by incubating the samples at 37° C. in 5% CO2 with sperm removed at various timepoints and isolated by centrifugation. […]"}, "[1]": {"system": "T1, recombinant CBP86 (CR-A of CBP86 with C-terminal six-histidine tag, expressed in E. coli)", "T1 sequence": "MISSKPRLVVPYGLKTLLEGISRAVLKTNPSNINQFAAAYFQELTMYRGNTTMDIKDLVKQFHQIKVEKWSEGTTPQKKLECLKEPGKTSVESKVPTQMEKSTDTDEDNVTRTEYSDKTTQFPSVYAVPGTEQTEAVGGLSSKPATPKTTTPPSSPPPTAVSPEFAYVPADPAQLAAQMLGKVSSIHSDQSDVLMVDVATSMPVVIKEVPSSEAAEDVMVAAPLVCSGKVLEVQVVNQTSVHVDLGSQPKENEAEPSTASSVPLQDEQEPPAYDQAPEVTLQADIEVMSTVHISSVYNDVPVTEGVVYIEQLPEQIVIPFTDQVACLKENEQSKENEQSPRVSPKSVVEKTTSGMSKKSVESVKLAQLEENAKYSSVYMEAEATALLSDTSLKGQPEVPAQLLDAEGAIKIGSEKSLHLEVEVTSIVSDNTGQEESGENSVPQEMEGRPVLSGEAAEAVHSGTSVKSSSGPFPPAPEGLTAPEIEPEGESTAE"}}, "note": "Entries after “also recorded” stand apart in the source; their conditions may differ."}
{"compound": "O=c1c(-c2ccc(O)cc2)coc2cc(O)ccc12", "note": "[daidzein]", "values": [{"measurement": "Capacitation-induced tyrosine phosphorylation of the 86 kDa CBP86 isoforms", "setting": "86 kDa form of CBP86", "result": "had an inhibitory effect on phosphorylation of CBP86"}]}
{"compound": "O=c1c(-c2ccc(O)cc2)coc2cc(O)cc(O)c12", "note": "[genistein]", "values": [{"measurement": "Capacitation-induced tyrosine phosphorylation of the 86 kDa CBP86 isoforms", "setting": "86 kDa form of CBP86", "result": "inhibited in a concentration dependent manner"}]}
{"compound": "CC(=O)[C@H]1CC[C@H]2[C@@H]3CCC4=CC(=O)CC[C@]4(C)[C@H]3CC[C@]12C", "note": "[progesterone]", "values": [{"measurement": "Tyrosine phosphorylation of the most acidic of the CBP86 isoforms", "setting": "86 kDa form of CBP86; 100 microM added to HTF+ albumin capacitation media, compared with HTF plus albumin alone", "result": "further enhanced the phosphorylation; also recorded: leads to phosphorylation of tyrosine residues on the acidic CBP86 isoforms"}]}
{"compound": "baculovirus expressed c-Src (Upstate Biotechnology, Inc.)", "values": [{"measurement": "tyrosine phosphorylation of recombinant CBP86 in an in vitro kinase assay ([32P]ATP, SDS-PAGE, autoradiography)", "setting": "[1]", "result": "An increase in tyrosine phosphorylation of CBP86 was noted as its concentration increased in the presence of a constant amount of c-Src"}]}
